Results from patent US6559158B1, “Use of methylnaltrexone and related compounds to treat chronic opioid use side affects” (UR Labs, Inc., priority 1997, dated 2003).
“And” between values parts separate entries of the source, which are not always exact repeats. Equal values may be shown once. “Also recorded” adds a separate entry of the source.

What was measured:
[1] = Example 4: pharmacokinetics of 0.45 mg/kg intravenous methylnaltrexone; conditions: per subject (1-12) and Mean ± SD
Description: Sessions were separated by at least 1 week. Each session lasted approximately 7 hours, and the subjects received one of three injections: (1) placebo plus placebo, (2) placebo plus 0.05 mg/kg morphine, or (3) 0.45 mg/kg methylnaltrexone plus 0.05 mg/kg morphine. Injection I was given at the first session, and the subjects were blinded to the medication. Injections 2 and 3 were given in a random order, and the subjects and observers were blinded to the medication. Injection assignments were prepared by random selection on a computer and were sealed in envelopes.

[2] = test system: chronic methadone subjects with methadone-induced constipation; experiment: Example 2: double-blind placebo-controlled trial of intravenous methylnaltrexone, laxation response; conditions: for methylnaltrexone dose received (infusion stopped at bowel movement): mean±SD, range 0.01-0.37

**Q.** What does the source list for `C[N@+]1(CC2CC2)CC[C@]23c4c5ccc(O)c4O[C@H]2C(=O)CC[C@@]3(O)[C@H]1C5` [methylnaltrexone, N-methylnaltrexone bromide]?
**A.** AUC ([1]; human, in vivo, iv, 0.45 mg/kg, AUC, area under the plasma concentration-time curve from 0 to 6 hours): 549 ng·h/mL; AUC, area under the plasma concentration-time curve from 0 to 6 hours [1]: 694 ng·h/mL and 595 ng·h/mL and 637 ng·h/mL and 588 ng·h/mL and 1013 ng·h/mL and 634 ng·h/mL and 587 ng·h/mL and 747 ng·h/mL and 677 ng·h/mL and 742 ng·h/mL and 658 ng·h/mL; CL, total body clearance [1]: 51.7 L/h and 61.6 L/h and 41.6 L/h and 62.2 L/h and 68.1 L/h and 28.4 L/h and 73.2 L/h and 43.0 L/h and 45.2 L/h and 46.5 L/h and 47.8 L/h and 60.1 L/h; Cmax, peak free plasma concentration [1]: 2111 ng/mL and 4309 ng/mL and 1921 ng/mL and 2418 ng/mL and 5471 ng/mL and 4076 ng/mL and 3443 ng/mL and 2993 ng/mL and 3059 ng/mL and 3119 ng/mL and 4033 ng/mL and 2640 ng/mL; Fu, percentage of dose excreted unchanged in urine from 0 to 3 hours [1]: 33.8% and 36.5% and 43.5% and 26.6% and 49.6% and 73.4% and 44.4% and 46.0% and 39.5% and 40.4% and 35.1% and 34.0%; t1/2β, terminal half-life [1]: 2.077 h and 2.71 h and 3.385 h and 3.968 h and 1.42 h and 1.56 h and 1.903 h and 2.53 h and 1.875 h and 1.772 h and 1.6 h and 1.46 h; methylnaltrexone dose received (infusion stopped at bowel movement) ([2]; Day 1, iv): 0.09 ± 0.10 mg/kg; methylnaltrexone dose received (infusion stopped at bowel movement) ([2]; Day 2, iv): 0.10 ± 0.10 mg/kg; Bowel movement Satisfaction ([2]; MNTX group, end of study, listed as MNTX): Very satisfied; also recorded: Somewhat satisfied; satisfaction with bowel movement activity at the end of the study ([2]; methylnaltrexone group): all 11 subjects were satisfied; subjects whose stool was soft to loose and in large quantity ([2]; methylnaltrexone group): over 90%
